Each structure is given as a SMILES string. Calls of active or inactive are those of the source. No rule for the calls is given here.

The series has as its system CCRIS mutagenicity, Ames/micronucleus/aberration tests. Briefly: CCRIS mutagenicity studies.
Setting [1] is: Test System: AMES SALMONELLA TYPHIMURIUM, Strain/Indicator: TA98, Metabolic Activation: NONE, Method: STANDARD PLATE.
Setting [2] is: Test System: AMES SALMONELLA TYPHIMURIUM, Strain/Indicator: TA100, Metabolic Activation: NONE, Method: STANDARD PLATE.
Where [3] appears, read: Test System: AMES SALMONELLA TYPHIMURIUM, Strain/Indicator: TA1535, Metabolic Activation: NONE, Method: STANDARD PLATE.
Setting [4] is: Test System: AMES SALMONELLA TYPHIMURIUM, Strain/Indicator: TA1537, Metabolic Activation: NONE, Method: STANDARD PLATE.
The mark [5] stands for this setting: Test System: AMES SALMONELLA TYPHIMURIUM, Strain/Indicator: TA98, Metabolic Activation: NONE, Method: PREINCUBATION
[6] abbreviates: Test System: AMES SALMONELLA TYPHIMURIUM, Strain/Indicator: TA100, Metabolic Activation: NONE, Method: PREINCUBATION
[7] abbreviates: Test System: AMES SALMONELLA TYPHIMURIUM, Strain/Indicator: TA97, Metabolic Activation: NONE, Method: PREINCUBATION

Turning to `O=S(=O)(O)NC1CCCCC1`, the mutagenic call is “inactive; negative” (Test System: CHINESE HAMSTER OVARY, Strain/Indicator: CHO-K1-BH4 (HGPRT), Metabolic Activation: NONE, Method: STANDARD PLATE); “inactive; negative” (Test System: CHINESE HAMSTER OVARY, Strain/Indicator: CHO-K1-BH4 (HGPRT), Metabolic Activation: RAT, LIVER, S-9, Method: STANDARD PLATE); “inactive; negative” (Test System: UDS RODENT HEPATOCYTES, Strain/Indicator: THY INCORP (NON-S-PHASE), Metabolic Activation: NONE, Method: AUTORADIOGRAPHY).

With `CCN(CCCl)CCCNc1c2ccc(Cl)cc2nc2ccc(OC)nc12`, the mutagenic call by setting is: under setting [1], “active; positive”; under setting [2], “active; positive”; under setting [3], “inactive; negative”; (Test System: AMES SALMONELLA TYPHIMURIUM, Strain/Indicator: TA1536, Metabolic Activation: NONE, Method: STANDARD PLATE) “active; positive”; under setting [4], “active; positive”; (Test System: AMES SALMONELLA TYPHIMURIUM, Strain/Indicator: TA1538, Metabolic Activation: NONE, Method: STANDARD PLATE) “active; positive”.

On to `Cc1ccc(S(=O)(=O)n2ncc(Cl)c(Cl)c2=O)cc1`, for which the mutagenic call is “inactive; negative” under setting [1]; “inactive; negative” (Test System: AMES SALMONELLA TYPHIMURIUM, Strain/Indicator: TA98, Metabolic Activation: RAT, LIVER, S-9, AROCLOR 1254, Method: STANDARD PLATE); “inactive; negative” under setting [2]; “inactive; negative” (Test System: AMES SALMONELLA TYPHIMURIUM, Strain/Indicator: TA100, Metabolic Activation: RAT, LIVER, S-9, AROCLOR 1254, Method: STANDARD PLATE); “inactive; negative” under setting [3]; “inactive; negative” (Test System: AMES SALMONELLA TYPHIMURIUM, Strain/Indicator: TA1535, Metabolic Activation: RAT, LIVER, S-9, AROCLOR 1254, Method: STANDARD PLATE). For the same molecule, the mutagenic call runs as follows: under setting [4], “inactive; negative”; (Test System: AMES SALMONELLA TYPHIMURIUM, Strain/Indicator: TA1537, Metabolic Activation: RAT, LIVER, S-9, AROCLOR 1254, Method: STANDARD PLATE) “inactive; negative”.

In the case of `CC(=O)Nc1cnc2ccccc2c1`, the mutagenic call is “inactive; negative” under setting [5]; “inactive; negative” (Test System: AMES SALMONELLA TYPHIMURIUM, Strain/Indicator: TA98, Metabolic Activation: RAT, LIVER, S-9, KANECHLOR 500, Method: PREINCUBATION); “inactive; negative” under setting [6]; “inactive; negative” (Test System: AMES SALMONELLA TYPHIMURIUM, Strain/Indicator: TA100, Metabolic Activation: RAT, LIVER, S-9, KANECHLOR 500, Method: PREINCUBATION).

As to `Cn1c(N)nc2nc3ccccc3cc21`, the mutagenic call is, setting by setting: (Test System: AMES SALMONELLA TYPHIMURIUM, Strain/Indicator: TA98, Metabolic Activation: RAT, LIVER, S-9, AROCLOR 1254A, Method: STANDARD PLATE) “active; positive”; (Test System: AMES SALMONELLA TYPHIMURIUM, Strain/Indicator: YG1024, Metabolic Activation: RAT, LIVER, S-9, AROCLOR 1254A, Method: STANDARD PLATE) “active; positive”.

As for `O[C@@H]1[C@@H]2O[C@@H]2C=C[C@H]1O`, the mutagenic call reads like this: under setting [7], “inactive; negative”; under setting [5], “inactive; negative”; (Test System: AMES SALMONELLA TYPHIMURIUM, Strain/Indicator: TA1535, Metabolic Activation: NONE, Method: PREINCUBATION) “active; positive”.

With `O=c1c2[nH]c3ccccc3c2nnn1/N=C/c1ccc(Cl)cc1`, the mutagenic call under setting [7] is “inactive; negative”; the mutagenic call (Test System: AMES SALMONELLA TYPHIMURIUM, Strain/Indicator: TA97, Metabolic Activation: RAT, LIVER, S-9, AROCLOR 1254 (10%), Method: PREINCUBATION) is “active; positive”; the mutagenic call under setting [5] was “active; positive”; the mutagenic call (Test System: AMES SALMONELLA TYPHIMURIUM, Strain/Indicator: TA98, Metabolic Activation: RAT, LIVER, S-9, AROCLOR 1254 (10%), Method: PREINCUBATION) is “active; positive”; the mutagenic call under setting [6] was “inactive; negative”; the mutagenic call (Test System: AMES SALMONELLA TYPHIMURIUM, Strain/Indicator: TA100, Metabolic Activation: RAT, LIVER, S-9, AROCLOR 1254 (10%), Method: PREINCUBATION) is “active; positive”. Also, the mutagenic call by setting is: (Test System: AMES SALMONELLA TYPHIMURIUM, Strain/Indicator: TA102, Metabolic Activation: NONE, Method: PREINCUBATION) “inactive; negative”; (Test System: AMES SALMONELLA TYPHIMURIUM, Strain/Indicator: TA102, Metabolic Activation: RAT, LIVER, S-9, AROCLOR 1254 (10%), Method: PREINCUBATION) “inactive; negative”.

These data come from PubChem BioAssay AID1259407 (Chemical Carcinogenesis Research Information System (CCRIS), 2018).
